Reference: the NIST ThermoML archive (doi:10.1021/je060271a)
± gives the expanded uncertainty stated by the source.

Conditions: 343.16 K, Liquid, Vibrating tube method

For `CCCCCC(=O)OCC(COC(=O)CCCCC)(COC(=O)CCCCC)COC(=O)CCCCC` [pentaerythritol tetrahexanoate], the mass density (27885 kPa) was 976.9 ± 1.2 kg/m3, the mass density (27922 kPa) was 976.9 ± 1.2 kg/m3 and the mass density (27953 kPa) was 976.9 ± 1.2 kg/m3. It also gave a mass density (27990 kPa) of 976.9 ± 1.2 kg/m3, a mass density (28022 kPa) of 977 ± 1.2 kg/m3 and a mass density (28053 kPa) of 977 ± 1.2 kg/m3. For the same compound, the mass density (28081 kPa) was 976.9 ± 1.2 kg/m3, the mass density (28111 kPa) was 977 ± 1.2 kg/m3 and the mass density (28135 kPa) was 977 ± 1.2 kg/m3. The mass density (28160 kPa) was 977.1 ± 1.2 kg/m3, the mass density (28189 kPa) was 977.2 ± 1.2 kg/m3 and the mass density (28213 kPa) was 977 ± 1.2 kg/m3. For the same compound, the mass density (28238 kPa) was 977.1 ± 1.2 kg/m3, the mass density (28267 kPa) was 977 ± 1.2 kg/m3 and the mass density (28292 kPa) was 977.1 ± 1.2 kg/m3. It also gave a mass density (28613 kPa) of 977.3 ± 1.2 kg/m3, a mass density (28638 kPa) of 977.3 ± 1.2 kg/m3 and a mass density (28664 kPa) of 977.3 ± 1.2 kg/m3. It also gave a mass density (28694 kPa) of 977.4 ± 1.2 kg/m3, a mass density (28719 kPa) of 977.5 ± 1.2 kg/m3 and a mass density (28745 kPa) of 977.4 ± 1.2 kg/m3. For the same compound, the mass density (28777 kPa) was 977.5 ± 1.2 kg/m3, the mass density (28799 kPa) was 977.4 ± 1.2 kg/m3 and the mass density (28830 kPa) was 977.4 ± 1.2 kg/m3. For the same compound, the mass density (28855 kPa) was 977.4 ± 1.2 kg/m3, the mass density (28886 kPa) was 977.6 ± 1.2 kg/m3 and the mass density (28912 kPa) was 977.6 ± 1.2 kg/m3. It also gave a mass density (28938 kPa) of 977.6 ± 1.2 kg/m3, a mass density (28969 kPa) of 977.3 ± 1.2 kg/m3 and a mass density (28995 kPa) of 977.6 ± 1.2 kg/m3. It also gave a mass density (29021 kPa) of 977.5 ± 1.2 kg/m3, a mass density (29048 kPa) of 977.7 ± 1.2 kg/m3 and a mass density (29360 kPa) of 977.8 ± 1.2 kg/m3. It also gave a mass density (29386 kPa) of 977.8 ± 1.2 kg/m3, a mass density (29419 kPa) of 977.8 ± 1.2 kg/m3 and a mass density (29533 kPa) of 977.9 ± 1.2 kg/m3. It also gave a mass density (29560 kPa) of 977.9 ± 1.2 kg/m3, a mass density (29588 kPa) of 978 ± 1.2 kg/m3 and a mass density (29620 kPa) of 977.8 ± 1.2 kg/m3. It also gave a mass density (29648 kPa) of 977.9 ± 1.2 kg/m3, a mass density (29680 kPa) of 978 ± 1.2 kg/m3 and a mass density (29708 kPa) of 978 ± 1.2 kg/m3. The mass density (29735 kPa) was 978 ± 1.2 kg/m3, the mass density (29824 kPa) was 978 ± 1.2 kg/m3 and the mass density (30097 kPa) was 978.2 ± 1.2 kg/m3. For the same compound, the mass density (30127 kPa) was 978.2 ± 1.2 kg/m3, the mass density (30157 kPa) was 978.2 ± 1.2 kg/m3 and the mass density (30193 kPa) was 978.4 ± 1.2 kg/m3. It also gave a mass density (30518 kPa) of 978.6 ± 1.2 kg/m3, a mass density (30540 kPa) of 978.4 ± 1.2 kg/m3 and a mass density (30566 kPa) of 978.7 ± 1.2 kg/m3. For the same compound, the mass density (30588 kPa) was 978.5 ± 1.2 kg/m3, the mass density (30610 kPa) was 978.5 ± 1.2 kg/m3 and the mass density (30637 kPa) was 978.6 ± 1.2 kg/m3. It also gave a mass density (30659 kPa) of 978.6 ± 1.2 kg/m3, a mass density (30682 kPa) of 978.8 ± 1.2 kg/m3 and a mass density (30704 kPa) of 978.7 ± 1.2 kg/m3. For the same compound, the mass density (30731 kPa) was 978.6 ± 1.2 kg/m3, the mass density (30753 kPa) was 978.7 ± 1.2 kg/m3 and the mass density (30776 kPa) was 978.7 ± 1.2 kg/m3. For the same compound, the mass density (30798 kPa) was 978.7 ± 1.2 kg/m3, the mass density (30825 kPa) was 978.7 ± 1.2 kg/m3 and the mass density (30848 kPa) was 978.5 ± 1.2 kg/m3. The mass density (30871 kPa) was 978.7 ± 1.2 kg/m3, the mass density (30894 kPa) was 979 ± 1.2 kg/m3 and the mass density (30917 kPa) was 978.8 ± 1.2 kg/m3. It also gave a mass density (30944 kPa) of 978.8 ± 1.2 kg/m3, a mass density (30966 kPa) of 978.8 ± 1.2 kg/m3 and a mass density (30993 kPa) of 978.8 ± 1.2 kg/m3. It also gave a mass density (31016 kPa) of 978.8 ± 1.2 kg/m3, a mass density (31038 kPa) of 978.8 ± 1.2 kg/m3 and a mass density (31065 kPa) of 978.9 ± 1.2 kg/m3. It also gave a mass density (31088 kPa) of 978.8 ± 1.2 kg/m3, a mass density (31111 kPa) of 978.8 ± 1.2 kg/m3 and a mass density (31134 kPa) of 978.8 ± 1.2 kg/m3. For the same compound, the mass density (31161 kPa) was 978.9 ± 1.2 kg/m3, the mass density (31185 kPa) was 979 ± 1.2 kg/m3 and the mass density (31208 kPa) was 978.9 ± 1.2 kg/m3. The mass density (31236 kPa) was 978.9 ± 1.2 kg/m3, the mass density (31259 kPa) was 979 ± 1.2 kg/m3 and the mass density (31282 kPa) was 979 ± 1.2 kg/m3. It also gave a mass density (31304 kPa) of 979.1 ± 1.2 kg/m3, a mass density (31332 kPa) of 979 ± 1.2 kg/m3 and a mass density (31355 kPa) of 979 ± 1.2 kg/m3. The mass density (31382 kPa) was 979.1 ± 1.2 kg/m3, the mass density (31405 kPa) was 979 ± 1.2 kg/m3 and the mass density (31429 kPa) was 979.1 ± 1.2 kg/m3. The mass density (31480 kPa) was 979.2 ± 1.2 kg/m3, the mass density (31504 kPa) was 979.1 ± 1.2 kg/m3 and the mass density (31527 kPa) was 979.2 ± 1.2 kg/m3. For the same compound, the mass density (31555 kPa) was 979.3 ± 1.2 kg/m3, the mass density (31578 kPa) was 979.3 ± 1.2 kg/m3 and the mass density (31606 kPa) was 979.3 ± 1.2 kg/m3. It also gave a mass density (31630 kPa) of 979.2 ± 1.2 kg/m3, a mass density (31654 kPa) of 979.2 ± 1.2 kg/m3 and a mass density (31682 kPa) of 979.3 ± 1.2 kg/m3. The mass density (31706 kPa) was 979.3 ± 1.2 kg/m3, the mass density (31729 kPa) was 979.3 ± 1.2 kg/m3 and the mass density (31758 kPa) was 979.3 ± 1.2 kg/m3. It also gave a mass density (31782 kPa) of 979.3 ± 1.2 kg/m3, a mass density (31806 kPa) of 979.3 ± 1.2 kg/m3 and a mass density (31830 kPa) of 979.3 ± 1.2 kg/m3. For the same compound, the mass density (31859 kPa) was 979.3 ± 1.2 kg/m3, the mass density (31883 kPa) was 979.4 ± 1.2 kg/m3 and the mass density (31912 kPa) was 979.4 ± 1.2 kg/m3. It also gave a mass density (31936 kPa) of 979.3 ± 1.2 kg/m3, a mass density (31960 kPa) of 979.3 ± 1.2 kg/m3 and a mass density (31984 kPa) of 979.4 ± 1.2 kg/m3. The mass density (32013 kPa) was 979.5 ± 1.2 kg/m3, the mass density (32037 kPa) was 979.6 ± 1.2 kg/m3 and the mass density (32061 kPa) was 979.4 ± 1.2 kg/m3. For the same compound, the mass density (32090 kPa) was 979.4 ± 1.2 kg/m3, the mass density (32114 kPa) was 979.5 ± 1.2 kg/m3 and the mass density (32144 kPa) was 979.6 ± 1.2 kg/m3. For the same compound, the mass density (32169 kPa) was 979.6 ± 1.2 kg/m3, the mass density (32193 kPa) was 979.4 ± 2 kg/m3 and the mass density (32217 kPa) was 979.6 ± 1.2 kg/m3. It also gave a mass density (32247 kPa) of 979.8 ± 1.2 kg/m3, a mass density (32272 kPa) of 979.6 ± 1.2 kg/m3 and a mass density (32296 kPa) of 979.7 ± 1.2 kg/m3. For the same compound, the mass density (32326 kPa) was 979.6 ± 1.2 kg/m3, the mass density (32351 kPa) was 979.7 ± 1.2 kg/m3 and the mass density (32381 kPa) was 979.7 ± 1.2 kg/m3. It also gave a mass density (32406 kPa) of 979.6 ± 1.2 kg/m3, a mass density (32431 kPa) of 979.6 ± 1.2 kg/m3 and a mass density (32456 kPa) of 979.8 ± 1.2 kg/m3. For the same compound, the mass density (32486 kPa) was 979.8 ± 1.2 kg/m3, the mass density (32511 kPa) was 979.7 ± 1.2 kg/m3 and the mass density (32536 kPa) was 979.7 ± 1.2 kg/m3. For the same compound, the mass density (32562 kPa) was 979.8 ± 1.2 kg/m3, the mass density (32592 kPa) was 979.9 ± 1.2 kg/m3 and the mass density (32617 kPa) was 979.8 ± 1.2 kg/m3. It also gave a mass density (32647 kPa) of 979.9 ± 1.2 kg/m3, a mass density (32672 kPa) of 979.8 ± 1.2 kg/m3 and a mass density (32698 kPa) of 979.8 ± 1.2 kg/m3. It also gave a mass density (32724 kPa) of 980 ± 1.2 kg/m3, a mass density (32755 kPa) of 979.9 ± 1.2 kg/m3 and a mass density (32780 kPa) of 980 ± 1.2 kg/m3. It also gave a mass density (32806 kPa) of 979.9 ± 1.2 kg/m3, a mass density (32837 kPa) of 979.9 ± 1.2 kg/m3 and a mass density (32863 kPa) of 980 ± 1.2 kg/m3. The mass density (32889 kPa) was 980 ± 1.2 kg/m3, the mass density (32920 kPa) was 979.8 ± 1.2 kg/m3 and the mass density (32945 kPa) was 980 ± 1.2 kg/m3. For the same compound, the mass density (32971 kPa) was 980 ± 1.2 kg/m3.
